Data taken from ChEMBL document CHEMBL1201862, “PubChem BioAssay data set” (2004).
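Tested at 5 concentrations; 48 h exposure; 96-well plates; endpoints linearly interpolated, else capped at highest concentration. The concentration for 50% growth inhibition is given as GI50.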 Activity calls are given as the source filed them. No stated cut-off is given here; in the data, active = GI50 up to about 1.1 µM and inactive = higher.

Legend:
Assay in all cases: inhibition of tumour cell growth, NCI panel, 48 h
[1] = tested on: NCI-H226
[2] = tested on: MOLT-4
[3] = tested on: HT-29
[4] = tested on: U-251
[5] = tested on: SR
[6] = tested on: SK-MEL-2
[7] = tested on: HOP-62
[8] = tested on: ACHN
[9] = tested on: RXF 393
[10] = tested on: 786-0
[11] = tested on: UACC-62
[12] = tested on: IGROV-1
[13] = tested on: A498
[14] = tested on: NCI-H460
[15] = tested on: KM12
[16] = tested on: NCI/ADR-RES
[17] = tested on: RPMI-8226
[18] = tested on: NCI-H23
[19] = tested on: SNB-75

Measured: GI50

N#Cc1nnc2c3c(-c4ccc(Cl)cc4)c(C#N)c(O)nc3nn2c1N
inactive: [1] 9.55 µM | [2] 2.62 µM | [3] 5 µM | [4] 1.28 µM | [5] 2.14 µM | [6] 9.84 µM | [7] 4.79 µM | [8] 8.11 µM | [9] 3.98 µM | [10] 5.14 µM | [11] 1.85 µM | [12] 2.61 µM | [13] 2.77 µM | [14] 9.14 µM | [15] 11.9 µM | [16] 18.4 µM | [17] 8.05 µM | [18] 5.81 µM

O[C@@]1(C#Cc2ccc3c(c2)OCO3)CCC[C@H]1NCc1ccccc1
inactive: [1] 15.9 µM | [2] 15.9 µM | [3] 22.9 µM | [4] 22.9 µM | [5] 23.2 µM | [6] 16.2 µM | [7] 26.5 µM | [8] 37.2 µM | [9] 24.3 µM | [10] 17.5 µM | [11] 16.9 µM | [12] 14.1 µM | [13] 28.6 µM | [14] 24.7 µM | [15] 20 µM | [19] 27.8 µM | [16] 16.7 µM | [17] 24 µM | [18] 29.6 µM

CSc1ccccc1NC1=NCCO1
inactive: [1] > 100 µM | [2] > 100 µM | [3] > 100 µM | [4] > 100 µM | [5] > 100 µM | [6] > 100 µM | [7] > 100 µM | [8] > 100 µM | [9] > 100 µM | [10] > 100 µM | [11] > 100 µM | [12] > 100 µM | [13] > 100 µM | [14] > 100 µM | [15] > 100 µM | [16] > 100 µM | [17] > 100 µM | [18] > 100 µM

O=[N+]([O-])/C(Cl)=C(\Nc1ccccc1)C(Cl)=C(Cl)Cl
inactive: [1] 26.5 µM | [2] 33.3 µM | [3] 30.5 µM | [4] 43.1 µM | [5] 27.4 µM | [6] 28.8 µM | [7] 29 µM | [8] 29.2 µM | [9] 37.3 µM | [10] 27.5 µM | [11] 26.2 µM | [12] 32.4 µM | [13] 30.8 µM | [14] 39.4 µM | [15] 12.9 µM | [19] 2.19 µM | [16] 16 µM | [17] 25.6 µM | [18] 44.8 µM
